Results reported in ChEMBL document CHEMBL5352441, “Modulation of FLT3-ITD and CDK9 in acute myeloid leukaemia cells by novel proteolysis targeting chimera (PROTAC)” (2022).
Calls of active or inactive are those of the source. No cut-off for these calls is given here. Peptide text beside a SMILES is read from it. * marks the point of attachment. Cbz = O=C(OCc1ccccc1)*

Experiments:
MV4-11 [1] = experiment: Upregulation of FLT3 total protein level in human MV4-11 cells harboring FLT3-ITD mutation at 0.1 uM incubated for 16 hrs by immunoblot analysis; type: functional, cell-based
MV4-11 [2] = experiment: Upregulation of FLT3 total protein level in CRBN-deficient human MV4-11 cells at 0.1 uM incubated for 16 hrs by immunoblot analysis; type: functional, cell-based
MV4-11 [3] = experiment: Downregulation of HOXA9 gene expression in human MV4-11 cells at 0.1 uM incubated for 4 hrs by qRT-PCR analysis; type: functional, cell-based
MV4-11 [4] = experiment: Downregulation of MEISI gene expression in human MV4-11 cells at 0.1 uM incubated for 4 hrs by qRT-PCR analysis; type: functional, cell-based
MV4-11 [5] = experiment: Downregulation of MCL-1 gene expression in human MV4-11 cells at 0.1 uM incubated for 4 hrs by qRT-PCR analysis; type: functional, cell-based
MV4-11 [6] = experiment: Downregulation of Bcl-2 gene expression in human MV4-11 cells at 0.1 uM incubated for 4 hrs by qRT-PCR analysis; type: functional, cell-based
MV4-11 [7] = experiment: Downregulation of Myc gene expression in human MV4-11 cells at 0.1 uM incubated for 4 hrs by qRT-PCR analysis; type: functional, cell-based
MV4-11 [8] = experiment: Downregulation of Myb gene expression in human MV4-11 cells at 0.1 uM incubated for 4 hrs by qRT-PCR analysis; type: functional, cell-based
[9] = target: Receptor-type tyrosine-protein kinase FLT3 (Homo sapiens) (UniProt P36888); experiment: Induction of FLT3 protein degradation in human MV4-11 cells at 0.2 uM incubated for 90 mins by immunoblot analysis; type: cell-based
Sequence of Receptor-type tyrosine-protein kinase FLT3 (Homo sapiens) (P36888 whole entry): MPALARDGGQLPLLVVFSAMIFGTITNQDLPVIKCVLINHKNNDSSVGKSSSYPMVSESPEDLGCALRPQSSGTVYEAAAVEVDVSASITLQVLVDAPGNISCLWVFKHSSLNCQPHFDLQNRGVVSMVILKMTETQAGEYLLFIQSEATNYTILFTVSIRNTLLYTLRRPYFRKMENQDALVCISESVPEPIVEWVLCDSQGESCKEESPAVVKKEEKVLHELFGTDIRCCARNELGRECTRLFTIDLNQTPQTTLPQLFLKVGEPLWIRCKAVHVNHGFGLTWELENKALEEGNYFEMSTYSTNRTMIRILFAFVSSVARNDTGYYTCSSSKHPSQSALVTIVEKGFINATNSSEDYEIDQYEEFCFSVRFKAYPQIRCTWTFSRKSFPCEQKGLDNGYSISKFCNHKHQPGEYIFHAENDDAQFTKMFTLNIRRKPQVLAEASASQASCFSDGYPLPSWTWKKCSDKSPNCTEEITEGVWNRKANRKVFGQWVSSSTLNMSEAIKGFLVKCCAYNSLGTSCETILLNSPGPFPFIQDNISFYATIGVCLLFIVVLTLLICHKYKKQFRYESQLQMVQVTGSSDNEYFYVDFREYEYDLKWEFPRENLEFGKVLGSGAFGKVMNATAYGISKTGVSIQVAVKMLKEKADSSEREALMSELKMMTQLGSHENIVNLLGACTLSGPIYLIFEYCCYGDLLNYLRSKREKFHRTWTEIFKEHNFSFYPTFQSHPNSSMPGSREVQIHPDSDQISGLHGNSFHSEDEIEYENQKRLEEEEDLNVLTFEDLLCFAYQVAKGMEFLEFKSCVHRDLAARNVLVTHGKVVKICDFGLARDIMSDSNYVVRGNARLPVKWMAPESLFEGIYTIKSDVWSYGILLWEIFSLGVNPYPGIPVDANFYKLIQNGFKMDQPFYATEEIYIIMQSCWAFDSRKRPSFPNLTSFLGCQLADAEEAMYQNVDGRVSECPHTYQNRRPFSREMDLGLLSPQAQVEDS

[10] = target: Cyclin-dependent kinase 9 (Homo sapiens) (UniProt P50750); experiment: Induction of CDK9 protein degradation in human MV4-11 cells at 0.2 uM incubated for 90 mins by immunoblot analysis; type: cell-based
Sequence of Cyclin-dependent kinase 9 (Homo sapiens) (P50750 whole entry): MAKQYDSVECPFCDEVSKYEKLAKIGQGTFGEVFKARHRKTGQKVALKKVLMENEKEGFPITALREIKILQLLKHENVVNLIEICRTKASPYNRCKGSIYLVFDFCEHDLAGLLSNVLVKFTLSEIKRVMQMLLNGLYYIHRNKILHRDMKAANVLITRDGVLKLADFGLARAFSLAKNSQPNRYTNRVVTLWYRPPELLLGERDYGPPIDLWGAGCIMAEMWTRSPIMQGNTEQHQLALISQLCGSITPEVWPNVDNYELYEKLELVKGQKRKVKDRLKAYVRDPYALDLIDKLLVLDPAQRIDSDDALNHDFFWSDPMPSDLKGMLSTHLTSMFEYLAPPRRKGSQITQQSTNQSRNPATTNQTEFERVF

MV4-11 [11] = experiment: Antiproliferative activity against human MV4-11 cells harboring FLT3-ITD mutation assessed as cell growth inhibition incubated for 72 hrs by resazurin dye based fluorescence analysis; type: functional
MV4-11 [12] = experiment: Antiproliferative activity against CRBN-deficient human MV4-11 cells assessed as cell growth inhibition incubated for 72 hrs by resazurin dye based fluorescence analysis; type: functional
MOLM-13 = experiment: Antiproliferative activity against human MOLM-13 cells harboring FLT3-ITD mutation assessed as cell growth inhibition incubated for 72 hrs by resazurin dye based fluorescence analysis; type: functional
RS4-11 = experiment: Antiproliferative activity against human RS4-11 cells assessed as cell growth inhibition incubated for 72 hrs by resazurin dye based fluorescence analysis; type: functional
HL-60 = experiment: Antiproliferative activity against human HL-60 cells assessed as cell growth inhibition incubated for 72 hrs by resazurin dye based fluorescence analysis; type: functional
U-937 = experiment: Antiproliferative activity against human U-937 cells assessed as cell growth inhibition incubated for 72 hrs by resazurin dye based fluorescence analysis; type: functional
THP-1 = experiment: Antiproliferative activity against human THP-1 cells assessed as cell growth inhibition incubated for 72 hrs by resazurin dye based fluorescence analysis; type: functional
Kasumi 1 = experiment: Antiproliferative activity against human Kasumi 1 cells assessed as cell growth inhibition incubated for 72 hrs by resazurin dye based fluorescence analysis; type: functional
CCRF-CEM = experiment: Antiproliferative activity against human CEM cells assessed as cell growth inhibition incubated for 72 hrs by resazurin dye based fluorescence analysis; type: functional
[13] = target: Receptor-type tyrosine-protein kinase FLT3 (Homo sapiens) (UniProt P36888); experiment: Inhibition of human FLT3 assessed as residual activity at 100 nM relative to control
[14] = target: CDK9/cyclin T1 (Homo sapiens) (UniProt O60563+P50750); experiment: Inhibition of human CDK9/Cyclin T1 assessed as residual activity at 100 nM relative to control; type: protein-complex assay
MV4-11 [15] = experiment: Effect on FLT3 protein level in human MV4-11 cells at 10 uM incubated for 90 mins by immunoblot analysis; type: functional, cell-based
MV4-11 [16] = experiment: Effect on CDK9 protein level in human MV4-11 cells at 10 uM incubated for 90 mins by immunoblot analysis; type: functional, cell-based
[17] = target: Receptor-type tyrosine-protein kinase FLT3 (Homo sapiens) (UniProt P36888); experiment: Inhibition of FLT3 signalling pathway in human MV4-11 cells assessed as reduction in ERK1/2 phosphorylation at T202/Y204 residues at 10 uM incubated for 90 mins by immunoblot analysis; type: cell-based
[18] = target: Receptor-type tyrosine-protein kinase FLT3 (Homo sapiens) (UniProt P36888); experiment: Inhibition of FLT3 signalling pathway in human MV4-11 cells assessed as reduction in STAT5 phosphorylation at Y694 residue at 10 uM incubated for 90 mins by immunoblot analysis; type: cell-based

In the case of `CNC(=O)c1cc(Oc2ccc(NC(=O)Nc3ccc(Cl)c(C(F)(F)F)c3)cc2)ccn1`, the Activity (MV4-11 [1]) is reported as “Active”, the Activity (MV4-11 [2]) is reported as “Active” and the Activity (MV4-11 [3]) is reported as “inactive”. For the same compound, the Activity (MV4-11 [4]) was “inactive”, the Activity (MV4-11 [5]) was “inactive” and the Activity (MV4-11 [6]) was “inactive”. For the same compound, the Activity (MV4-11 [7]) was “inactive” and the Activity (MV4-11 [8]) was “inactive”.

For `CC(C)(C)c1cc(NC(=O)Nc2ccc(-c3cn4c(n3)sc3cc(OCCN5CCOCC5)ccc34)cc2)no1`, the Activity (MV4-11 [1]) was “Active”, the Activity (MV4-11 [2]) was “Active” and the Activity (MV4-11 [3]) was “inactive”. For the same compound, the Activity (MV4-11 [4]) was “inactive”, the Activity (MV4-11 [5]) was “inactive” and the Activity (MV4-11 [6]) was “inactive”. The Activity (MV4-11 [7]) was “inactive” and the Activity (MV4-11 [8]) was “inactive”.

For `CC(C)C[C@@H](C=O)NC(=O)[C@H](CC(C)C)NC(=O)[C@H](CC(C)C)NC(=O)OCc1ccccc1` (Cbz-Leu-Leu-Leu-aldehyde), the Activity [9] was “inactive” and the Activity [10] was “inactive”.

Compound `CCN1CCN(c2ccc(Nc3nc(NC4CCC(N)CC4)nc4c3ncn4C3CCCC3)cc2)CC1` (stereo not drawn) has a GI50 (MV4-11 [11]) of 9 nM, a GI50 (MV4-11 [12]) of 8 nM and a GI50 (MOLM-13) of 8 nM. For the same compound, the GI50 (RS4-11) was 295 nM, the GI50 (HL-60) was 1520 nM and the GI50 (U-937) was 695 nM. It also gave a GI50 (THP-1) of 681 nM, a GI50 (Kasumi 1) of 534 nM and a GI50 (CCRF-CEM) of 1280 nM. It also gave an Activity [13] of 2% and an Activity [14] of 3%.

In the case of `O=C1CCC(N2C(=O)c3cccc(O)c3C2=O)C(=O)N1` (stereo not drawn), the Activity (MV4-11 [15]) is reported as “inactive”, the Activity (MV4-11 [16]) is reported as “inactive” and the inhibition [17] is reported as “inactive”. For the same compound, the inhibition [18] was “inactive”.
